From patent US12479844B2, “Ion channel modulators” (Praxis Precision Medicines, Inc., priority 2018, dated 2025) come the findings set out here.

T1 sequence (Q9UQD0 whole entry): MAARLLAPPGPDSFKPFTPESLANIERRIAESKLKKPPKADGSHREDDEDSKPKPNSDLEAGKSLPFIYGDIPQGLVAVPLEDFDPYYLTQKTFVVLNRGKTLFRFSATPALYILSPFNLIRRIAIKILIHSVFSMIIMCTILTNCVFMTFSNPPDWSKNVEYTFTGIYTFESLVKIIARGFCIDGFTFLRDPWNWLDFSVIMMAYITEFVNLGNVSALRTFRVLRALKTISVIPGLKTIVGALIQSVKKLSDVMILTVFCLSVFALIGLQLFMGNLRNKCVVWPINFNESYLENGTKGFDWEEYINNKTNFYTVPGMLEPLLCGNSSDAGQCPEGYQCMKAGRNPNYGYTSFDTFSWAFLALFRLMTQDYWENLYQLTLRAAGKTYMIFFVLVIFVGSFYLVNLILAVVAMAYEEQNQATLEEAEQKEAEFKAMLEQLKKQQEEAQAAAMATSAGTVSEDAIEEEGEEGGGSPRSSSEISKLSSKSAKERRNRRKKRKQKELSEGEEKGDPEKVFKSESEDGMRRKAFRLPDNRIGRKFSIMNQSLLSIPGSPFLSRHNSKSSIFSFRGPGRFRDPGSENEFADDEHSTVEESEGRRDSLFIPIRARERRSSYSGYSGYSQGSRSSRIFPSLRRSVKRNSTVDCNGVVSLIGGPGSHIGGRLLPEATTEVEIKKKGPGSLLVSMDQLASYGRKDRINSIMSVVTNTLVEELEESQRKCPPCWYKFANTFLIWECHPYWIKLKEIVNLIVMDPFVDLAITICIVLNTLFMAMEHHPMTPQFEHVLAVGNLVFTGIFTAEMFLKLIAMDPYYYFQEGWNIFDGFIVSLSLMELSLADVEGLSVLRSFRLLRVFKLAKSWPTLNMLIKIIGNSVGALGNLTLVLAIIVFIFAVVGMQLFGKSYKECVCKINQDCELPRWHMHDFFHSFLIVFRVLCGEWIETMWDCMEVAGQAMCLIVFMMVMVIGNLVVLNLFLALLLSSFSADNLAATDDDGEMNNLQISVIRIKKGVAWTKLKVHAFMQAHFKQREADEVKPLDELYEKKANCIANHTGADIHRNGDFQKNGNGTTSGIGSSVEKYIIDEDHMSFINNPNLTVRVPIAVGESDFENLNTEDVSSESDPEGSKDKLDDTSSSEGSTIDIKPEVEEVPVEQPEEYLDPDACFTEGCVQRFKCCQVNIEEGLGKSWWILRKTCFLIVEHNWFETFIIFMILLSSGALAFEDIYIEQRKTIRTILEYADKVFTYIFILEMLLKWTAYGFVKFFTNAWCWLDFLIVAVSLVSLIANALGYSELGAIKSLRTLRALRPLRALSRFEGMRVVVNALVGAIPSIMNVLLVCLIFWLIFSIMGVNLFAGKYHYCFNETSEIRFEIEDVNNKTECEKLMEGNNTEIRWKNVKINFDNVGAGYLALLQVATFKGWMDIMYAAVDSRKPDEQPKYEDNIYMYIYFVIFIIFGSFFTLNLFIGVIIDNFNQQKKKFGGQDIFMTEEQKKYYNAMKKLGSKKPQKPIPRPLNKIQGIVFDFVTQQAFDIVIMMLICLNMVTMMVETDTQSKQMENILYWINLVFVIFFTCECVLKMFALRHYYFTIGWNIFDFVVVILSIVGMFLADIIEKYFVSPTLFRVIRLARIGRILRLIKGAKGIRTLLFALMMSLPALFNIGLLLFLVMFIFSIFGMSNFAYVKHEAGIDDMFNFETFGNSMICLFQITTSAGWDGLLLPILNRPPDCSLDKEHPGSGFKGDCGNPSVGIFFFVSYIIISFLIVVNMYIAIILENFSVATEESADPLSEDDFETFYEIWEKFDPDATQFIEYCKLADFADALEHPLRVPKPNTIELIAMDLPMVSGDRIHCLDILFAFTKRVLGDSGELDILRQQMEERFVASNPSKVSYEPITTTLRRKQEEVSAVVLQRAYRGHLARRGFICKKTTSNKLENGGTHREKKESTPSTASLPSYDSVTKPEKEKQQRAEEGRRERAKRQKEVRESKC

This assay addresses T1, human NaV1.6 (hNaV1.6) (Homo sapiens, UniProt Q9UQD0).
T1 construct: expressed in transfected cells; host or cells: HEK-293
The experiment in a line: Modulation of late sodium current (INaL), PatchXpress high throughput electrophysiology. To be noted: HEK293, HEK-293 cells expressing recombinant human NaV1.6, late current evoked by 300 nM ATX-II, read-out: NaV 1.6 Assay Data (percent inhibition of INaL at hNaV1.6). It counts as cell-based. The protocol: Functional characterization of exemplary compounds to modulate INaL expressed by the NaV1.6 voltage-gated sodium channel was accomplished using the PatchXpress™ high throughput electrophysiology platform (Molecular Devices, Sunnyvale, CA). HEK-293 cells expressing recombinant, human NaV1.6 (hNaV1.6) were grown in DMEM/high-glucose Dulbecco's modified, 10% FBS, 2 mM sodium pyruvate, 10 mM HEPES and 400 μg/mL G418. Cells were grown to 50%-80% confluency prior to harvesting. Trypsinized cells were washed, allowed to recover for 1 hour and then resuspended in extracellular recording solution at a concentration of 1×10^6 cells/ml. The onboard liquid handling facility of the PatchXpress was used for dispensing cells and applying test compounds. NaV late currents were evoked by the application of 300 nM ATX-II. INaL was evoked by depolarizing pulses to 0 mV for 200 ms from a non-inactivating holding potential (e.g., −120 mV) at a frequency of 0.1 Hz. INaL amplitude and stability were determined by analyzing the mean current amplitude over the final 20 ms of thetest pulse. Following steady state block with exemplary compounds (e.g., as described herein), a Na+ free solution containing an impermeant cation (e.g., Choline or NDMG) was added to confirm the identify of the sodium current. Percent steady-state inhibition of INaL was calculated as: [(INaL_compound)/(INaL_control)]*100, where INaL_compound and INaL_control represent INaL recorded in the presence or absence of compound, respectively.
By inhibition is commonly meant the drop in the measured response relative to a control, in per cent. Take `COC(F)(F)c1nnc2cnc(-c3ccc(O[C@H](C)C(F)(F)F)cc3C)cn12` (single isomer, unassigned) [Compound 27]: the inhibition at 1 µM was in the range of 30 to 70%.

In the case of `COC(F)(F)c1nnc2cnc(-c3ccc(O[C@@H](C)C(F)(F)F)cc3C)cn12` (single isomer, unassigned) [Compound 28], the inhibition at 1 µM fell in the range of 30 to 70%.

Regarding `CCOC(F)(F)c1nnc2cnc(-c3ccc(O[C@H](C)C(F)(F)F)cc3C)cn12` (single isomer, unassigned) [Compound 29], the inhibition at 1 µM is more than 70%.

As to `CCOC(F)(F)c1nnc2cnc(-c3ccc(O[C@@H](C)C(F)(F)F)cc3C)cn12` (single isomer, unassigned) [Compound 30], the inhibition at 1 µM was in the range of 30 to 70%.

Consider `CO[C@H](C)c1cc(OC(F)(F)F)ccc1-c1cn2c(C(F)(F)OC)nnc2cn1` (single isomer, unassigned) [Compound 31], for which the inhibition at 1 µM was less than 30%.

`CO[C@@H](C)c1cc(OC(F)(F)F)ccc1-c1cn2c(C(F)(F)OC)nnc2cn1` (single isomer, unassigned) [Compound 32]: the inhibition at 1 µM is less than 30%.

For the compound `COCc1cc(OC(F)(F)F)ccc1-c1cn2c(C(F)(F)OC)nnc2cn1` [Compound 1, 3-[difluoro(methoxy)methyl]-6-[2-(methoxymethyl)-4-(trifluoromethoxy)phenyl]-[1,2,4]triazolo[4,3-a]pyrazine], the inhibition at 1 µM was more than 70%.

With `COC(F)(F)c1nnc2cnc(-c3ccc(OC(F)(F)F)cc3C)cn12` [Compound 2, 3-[difluoro(methoxy)methyl]-6-[2-methyl-4-(trifluoromethoxy)phenyl]-[1,2,4]triazolo[4,3-a]pyrazine], the inhibition at 1 µM was more than 70%.

Turning to `COCc1nnc2cnc(-c3ccc(OC(F)(F)F)cc3C)cn12` [Compound 3, 3-(methoxymethyl)-6-[2-methyl-4-(trifluoromethoxy)phenyl]-[1,2,4]triazolo[4,3-a]pyrazine], the inhibition at 1 µM was less than 30%.

In the case of `CCOC(F)(F)c1nnc2cnc(-c3ccc(OC(F)(F)F)cc3C)cn12` [Compound 4, 3-[ethoxy(difluoro)methyl]-6-[2-methyl-4-(trifluoromethoxy)phenyl]-[1,2,4]triazolo[4,3-a]pyrazine], the inhibition at 1 µM is more than 70%.

`CCOCc1nnc2cnc(-c3ccc(OC(F)(F)F)cc3C)cn12` [Compound 5, 3-(ethoxymethyl)-6-[2-methyl-4-(trifluoromethoxy)phenyl]-[1,2,4]triazolo[4,3-a]pyrazine]: the inhibition at 1 µM lay within 30 to 70%.

On to `Cc1cc(OC(F)(F)F)ccc1-c1cn2c(COCc3ccccc3)nnc2cn1` [Compound 6, 3-((benzyloxy)methyl)-6-(2-methyl-4-(trifluoromethoxy)phenyl)-[1,2,4]triazolo[4,3-a]pyrazine], for which the inhibition at 1 µM was more than 70%.

With `Cc1cc(OC(F)(F)F)ccc1-c1cn2c(COCC(C)C)nnc2cn1` [Compound 7, 3-(isobutoxymethyl)-6-(2-methyl-4-(trifluoromethoxy)phenyl)-[1,2,4]triazolo[4,3-a]pyrazine], the inhibition at 1 µM was 30 to 70%.

As to `COCc1nnc2ccc(-c3ccc(OC(F)(F)F)cc3C)nn12` [Compound 8, 3-(methoxymethyl)-6-[2-methyl-4-(trifluoromethoxy)phenyl]-[1,2,4]triazolo[4,3-b]pyridazine], the inhibition at 1 µM fell in the range of 30 to 70%.

Consider `CCOC(F)(F)c1nnc2cnc(-c3ccc(OC(F)(F)F)c(C)c3)cn12` [Compound 9, 3-[ethoxy(difluoro)methyl]-6-[3-methyl-4-(trifluoromethoxy)phenyl]-[1,2,4]triazolo[4,3-a]pyrazine], for which the inhibition at 1 µM is 30 to 70%.

For `Cc1cc(OC(F)(F)F)ccc1-c1cn2c(C(F)(F)OC(C)C)nnc2cn1` [Compound 10, 3-(difluoro(isopropoxy)methyl)-6-(2-methyl-4-(trifluoromethoxy)phenyl)-[1,2,4]triazolo[4,3-a]pyrazine], the inhibition at 1 µM is 30 to 70%.

As for `COC(F)(F)c1nnc2cnc(-c3ccc(OC(F)(F)F)c(C)c3)cn12` [Compound 11, 3-(difluoro(methoxy)methyl)-6-(3-methyl-4-(trifluoromethoxy)phenyl)-[1,2,4]triazolo[4,3-a]pyrazine], the inhibition at 1 µM is less than 30%.

Consider `Cc1cc(OC(F)(F)F)ccc1-c1cn2c(C(F)(F)OC3CC3)nnc2cn1` [Compound 12, 3-[cyclopropoxy(difluoro)methyl]-6-[2-methyl-4-(trifluoromethoxy)phenyl]-[1,2,4]triazolo[4,3-a]pyrazine], for which the inhibition at 1 µM lay within 30 to 70%.

For `CCOCc1nnc2ccc(-c3ccc(OC(F)(F)F)cc3C)nn12` [Compound 13, 3-(ethoxymethyl)-6-[2-methyl-4-(trifluoromethoxy)phenyl]-[1,2,4]triazolo[4,3-b]pyridazine], the inhibition at 1 µM is less than 30%.

Consider `COC(F)(F)c1nnc2ccc(-c3ccc(OC(F)(F)F)cc3C)nn12` [Compound 14, 3-[difluoro(methoxy)methyl]-6-[2-methyl-4-(trifluoromethoxy)phenyl]-[1,2,4]triazolo[4,3-b]pyridazine], for which the inhibition at 1 µM fell in the range of 30 to 70%.

As for `CCOC(F)(F)c1nnc2ccc(-c3ccc(OC(F)(F)F)cc3C)nn12` [Compound 15, 3-[ethoxy(difluoro)methyl]-6-[2-methyl-4-(trifluoromethoxy)phenyl]-[1,2,4]triazolo[4,3-b]pyridazine], the inhibition at 1 µM was less than 30%.

For `Cc1cc(OC(F)(F)F)ccc1-c1cn2c(COCC3CC3)nnc2cn1` [Compound 16, 3-(cyclopropylmethoxymethyl)-6-[2-methyl-4-(trifluoromethoxy)phenyl]-[1,2,4]triazolo[4,3-a]pyrazine], the inhibition at 1 µM is 30 to 70%.

As to `COCc1cc(OC(F)(F)F)ccc1-c1cn2c(COC)nnc2cn1` [Compound 17, 3-(methoxymethyl)-6-[2-(methoxymethyl)-4-(trifluoromethoxy)phenyl]-[1,2,4] triazolo[4,3-a]pyrazine], the inhibition at 1 µM was less than 30%.

With `Cc1cc(OC(F)(F)F)ccc1-c1cn2c(C(F)(F)OCC3CC3)nnc2cn1` [Compound 18, 3-[cyclopropylmethoxy(difluoro)methyl]-6-[2-methyl-4-(trifluoromethoxy)phenyl]-[1,2,4]triazolo[4,3-a]pyrazine], the inhibition at 1 µM is more than 70%.

Turning to `CCOC(F)(F)c1nnc2cnc(-c3ccc(OC(F)(F)F)cc3COC)cn12` [Compound 19, 3-[ethoxy (difluoro)methyl]-6-[2-(methoxymethyl)-4-(trifluoromethoxy)phenyl]-[1,2,4] triazolo [4,3-a] pyrazine], the inhibition at 1 µM was more than 70%.

For `Cc1cc(OC(F)(F)F)ccc1-c1cn2c(COC3CC3)nnc2cn1` [Compound 20, 3-(cyclopropoxymethyl)-6-[2-methyl-4-(trifluoromethoxy)phenyl]-[1,2,4]triazolo[4,3-a]pyrazine], the inhibition at 1 µM lay within 30 to 70%.

Take `COC(F)(F)c1nnc2cnc(-c3ccc(OCC(F)(F)F)cc3C)cn12` [Compound 21, 3-(difluoro(methoxy)methyl)-6-(2-methyl-4-(2,2,2-trifluoroethoxy)phenyl)-[1,2,4]triazolo[4,3-a]pyrazine]: the inhibition at 1 µM fell in the range of 30 to 70%.

Turning to `COC(F)(F)c1nnc2cnc(-c3ccc(OC(C)C)cc3C)cn12` [Compound 22, 3-(difluoro(methoxy)methyl)-6-(4-isopropoxy-2-methylphenyl)-[1,2,4]triazolo [4,3-a]pyrazine], the inhibition at 1 µM lay within 30 to 70%.

Consider `CCOC(F)(F)c1nnc2cnc(-c3ccc(OC(C)C)cc3C)cn12` [Compound 23, 3-(ethoxydifluoromethyl)-6-(4-isopropoxy-2-methylphenyl)-[1,2,4]triazolo[4,3-a]pyrazine], for which the inhibition at 1 µM lay within 30 to 70%.

`COC(F)(F)c1nnc2cnc(-c3ccc(OC(C)C)cc3)cn12` [Compound 24, 3-(difluoro(methoxy)methyl)-6-(4-isopropoxyphenyl)-[1,2,4]triazolo[4,3-a]pyrazine]: the inhibition at 1 µM is more than 70%.

For `CCOC(F)(F)c1nnc2cnc(-c3ccc(OC(C)C)cc3)cn12` [Compound 25, 3-(ethoxydifluoromethyl)-6-(4-isopropoxyphenyl)-[1,2,4]triazolo[4,3-a]pyrazine], the inhibition at 1 µM was more than 70%.

In the case of `CCc1cc(OC(F)(F)F)ccc1-c1cn2c(C(F)(F)OC)nnc2cn1` [Compound 26, 3-[difluoro(methoxy)methyl]-6-[2-ethyl-4-(trifluoromethoxy)phenyl]-[1,2,4]triazolo[4,3-a]pyrazine], the inhibition at 1 µM is more than 70%.

With `COC(F)(F)c1nnc2cnc(-c3ccc(OC(F)(F)F)cc3C3CC3)cn12` [Compound 33, 6-[2-cyclopropyl-4-(trifluoromethoxy)phenyl]-3-[difluoro(methoxy)methyl]-[1,2,4]triazolo[4,3-a]pyrazine], the inhibition at 1 µM is more than 70%.

Turning to `CCOC(F)(F)c1nnc2cnc(-c3ccc(OC(F)(F)F)cc3C3CC3)cn12` [Compound 34, 6-[2-cyclopropyl-4-(trifluoromethoxy)phenyl]-3-[ethoxy(difluoro)methyl]-[1,2,4]triazolo[4,3-a]pyrazine], the inhibition at 1 µM is more than 70%.
